Consider 2 compounds from patent publication US4308181A, “Polypeptide compositions” (American Home Products Corporation, priority 1980, dated 1981).

The test system of this test is T lymphocytes isolated from spleens of male CBA/J or NZB mice. Nature of the test: T lymphocyte proliferation, 3H-thymidine uptake. In kind it is cell-based. The following applies: 48 h culture. Here is the method: The activity of the compounds of the Examples is determined according to the following procedure:
T lymphocytes are isolated from spleens of male CBA/J or NZB mice. Cell homogenates are prepared in Hank's balanced salt solution (HBSS). After removal of larger particles and repeated washing of the cells in HBSS they are suspended in minimum essential medium (MEM) and passed through a glass wool column to remove macrophages. The cells are then incubated on a nylon wool column at 37° C., 95% air, 5% CO2, for 45 minutes. The non-adherant T lymphocytes are then eluted from the column, counted, and adjusted to 20×10^6 cells/ml. 50 μl. of cells are cultured (37° C., 95% air, 5% CO2) with compound, for 48 hours before addition of 0.5 μCi. of 3H-thymidine for the last 16 hours of culture. The total volume of the culture system is 200 μ l. The cells are then harvested on a multiple automatic sample harvester (MashII), the glass fiber filter disks placed in 10 ml. of xylene base scintillation fluid, and counted for 1 minute in a liquid scintillation counter. Results are reported as CPM+SE. Comparisons are made between counts obtained with control cultures and cultures containing compound and a determination made as to whether the compounds are active at the dosage tested.

Where [1] appears, read: 0.75 ng/culture, run with control 19,275 ± 1298.
The mark [2] stands for this setting: 1.5 ng/culture, run with control 9,876 ± 951.
[3] abbreviates: 1.5 ng/culture, run with control 19,275 ± 1298.
Where [4] appears, read: 6.0 ng/culture, run with control 9,876 ± 951.
The mark [5] stands for this setting: 6.0 ng/culture, run with control 19,275 ± 1298.
Where [6] appears, read: 25 ng/culture, run with control 9,876 ± 951.
Setting [7] is: 100 ng/culture, run with control 9,876 ± 951.

Molecules are shown by their SMILES. Residues, ends and D or L forms follow the SMILES beside them.

Take `CC(=O)N[C@@H](CO)C(=O)N[C@@H](Cc1c[nH]cn1)C(=O)N[C@@H](CC(C)C)C(=O)N[C@H](C(N)=O)C(C)C.CC(=O)O` [Ac--Ser--His--Leu--Val--NH2, N-acetylseryl-L-histidyl-L-leucyl-L-valinamide, acetate] (Ac-SHLV-NH2): the “H-Thymidine Uptake CPM + S.E.” value is on record as 26,137 ± 6158 CPM under setting [1]; 30,925 ± 3256 CPM under setting [2]; 32,646 ± 2284 CPM under setting [3]; 26,741 ± 3049 CPM under setting [4]; 30,425 ± 8896 CPM under setting [5]; 28,206 ± 2233 CPM under setting [6]. Besides, the “H-Thymidine Uptake CPM + S.E.” value reads like this: (25 ng/culture, run with control 19,275 ± 1298) 32,278 ± 5373 CPM; under setting [7], 20,758 ± 3027 CPM.
Turning to `CC(=O)NCC(=O)N[C@@H](CO)C(=O)N[C@@H](Cc1c[nH]cn1)C(=O)N[C@@H](CC(C)C)C(N)=O` [Ac--Gly--Ser--His--Leu--NH2, N-acetylglycyl-L-seryl-L-histidyl-L-leucinaminde, acetate] (Ac-GSHL-NH2), the “H-Thymidine Uptake CPM + S.E.” value runs as follows: under setting [1], 41,019 ± 6047 CPM; under setting [2], 15,028 ± 1178 CPM; under setting [3], 48,033 ± 5499 CPM; under setting [4], 19,423 ± 1031 CPM; under setting [5], 38,254 ± 7188 CPM; under setting [6], 19,433 ± 3092 CPM. In addition, under setting [7], the “H-Thymidine Uptake CPM + S.E.” value is reported as 20,409 ± 4081 CPM.
